Values belong to the compound of their own block, whether it stands above or below them. The source made the active and inactive calls.
Tests used:
[1] = test system: HEK293; assay: inhibition of NOD1-driven NF-kB reporter – cell-based, luminescence, uHTS, primary screen (AID 1578); type: functional; conditions: Homo sapiens
[2] = test system: HEK293; assay: cells; type: functional, cell-based; conditions: Homo sapiens
[3] = test system: HEK293; assay: NOD2 signaling inhibitors in MDP-stimulated cells, cell-based, uHTS, luminescence (AID 2001); type: functional; conditions: Homo sapiens
[4] = molecular target: T1, Cysteine protease ATG4B (Homo sapiens, UniProt Q9Y4P1); type: functional;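 note: Fluorescence-based dose-response confirmation assay measuring inhibition of ATG4B activity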
T1 sequence (Q9Y4P1 whole entry): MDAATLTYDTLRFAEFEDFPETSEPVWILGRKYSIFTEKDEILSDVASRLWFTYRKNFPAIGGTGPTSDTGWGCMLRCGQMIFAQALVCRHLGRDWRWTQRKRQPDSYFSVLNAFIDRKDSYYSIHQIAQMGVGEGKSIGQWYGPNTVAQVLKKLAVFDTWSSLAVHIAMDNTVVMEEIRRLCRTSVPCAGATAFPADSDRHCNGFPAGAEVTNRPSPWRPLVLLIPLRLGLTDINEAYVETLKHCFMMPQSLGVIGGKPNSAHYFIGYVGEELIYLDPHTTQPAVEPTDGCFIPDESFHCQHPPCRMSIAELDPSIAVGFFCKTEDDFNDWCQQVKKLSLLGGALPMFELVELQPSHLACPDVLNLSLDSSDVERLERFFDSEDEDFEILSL

[5] = molecular target: Genome polyprotein (dengue virus type 2, UniProt P29990); assay: flavivirus cap methylation enzyme inhibition – biochemical, confirmation dose response, primary screen (AID 588689); type: functional
Genome polyprotein, sequence (P29990 2492-3391 limits assumed): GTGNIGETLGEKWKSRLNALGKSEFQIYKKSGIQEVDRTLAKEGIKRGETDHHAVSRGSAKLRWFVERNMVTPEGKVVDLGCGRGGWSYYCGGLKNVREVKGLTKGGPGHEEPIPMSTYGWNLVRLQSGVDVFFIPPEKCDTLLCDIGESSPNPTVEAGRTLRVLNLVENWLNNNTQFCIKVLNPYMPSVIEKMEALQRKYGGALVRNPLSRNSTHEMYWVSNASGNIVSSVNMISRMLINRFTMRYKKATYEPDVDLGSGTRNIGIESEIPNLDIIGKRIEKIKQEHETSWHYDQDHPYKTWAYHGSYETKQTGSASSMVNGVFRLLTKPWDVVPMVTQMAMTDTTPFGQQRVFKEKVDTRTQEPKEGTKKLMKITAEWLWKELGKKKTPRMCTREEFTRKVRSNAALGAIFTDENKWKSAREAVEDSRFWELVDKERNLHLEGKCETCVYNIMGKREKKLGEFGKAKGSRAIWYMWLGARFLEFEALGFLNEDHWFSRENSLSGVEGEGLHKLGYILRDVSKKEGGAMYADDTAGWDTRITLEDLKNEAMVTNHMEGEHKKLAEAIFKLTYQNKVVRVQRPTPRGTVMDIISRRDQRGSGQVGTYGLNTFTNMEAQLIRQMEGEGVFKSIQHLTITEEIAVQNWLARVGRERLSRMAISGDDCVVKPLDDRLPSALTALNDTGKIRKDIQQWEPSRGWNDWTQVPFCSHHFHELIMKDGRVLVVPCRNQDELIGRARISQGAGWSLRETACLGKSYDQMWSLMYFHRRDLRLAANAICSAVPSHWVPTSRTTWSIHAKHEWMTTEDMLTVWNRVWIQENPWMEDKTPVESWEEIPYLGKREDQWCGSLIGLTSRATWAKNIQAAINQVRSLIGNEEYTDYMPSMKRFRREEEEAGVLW

[6] = molecular target: Phospholipase A2 (Homo sapiens, UniProt P04054); type: functional;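 note: confirmatory dose-response counterscreen on phospholipase A2, testing hits that came from an ultra-high-throughput screen for ATG4B inhibitors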
Phospholipase A2, sequence (P04054 whole entry): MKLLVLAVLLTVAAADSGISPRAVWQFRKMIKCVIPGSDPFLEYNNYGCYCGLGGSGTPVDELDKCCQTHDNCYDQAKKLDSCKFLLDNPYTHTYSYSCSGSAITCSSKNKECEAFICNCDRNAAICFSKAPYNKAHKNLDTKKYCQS

[7] = molecular target: Induced myeloid leukemia cell differentiation protein Mcl-1 (Homo sapiens, UniProt Q07820); type: functional
Induced myeloid leukemia cell differentiation protein Mcl-1, sequence (Q07820 whole entry): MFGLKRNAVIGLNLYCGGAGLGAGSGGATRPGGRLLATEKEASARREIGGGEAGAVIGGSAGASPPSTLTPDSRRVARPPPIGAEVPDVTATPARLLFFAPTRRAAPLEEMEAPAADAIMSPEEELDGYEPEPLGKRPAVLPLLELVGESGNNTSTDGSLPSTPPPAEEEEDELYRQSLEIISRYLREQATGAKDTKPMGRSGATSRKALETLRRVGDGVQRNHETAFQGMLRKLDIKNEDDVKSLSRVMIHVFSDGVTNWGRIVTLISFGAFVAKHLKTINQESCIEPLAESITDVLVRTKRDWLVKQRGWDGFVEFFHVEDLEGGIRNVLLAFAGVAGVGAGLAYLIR

[8] = test system: HEK293; assay: cells; type: functional, cell-based; conditions: Homo sapiens; remark: listed apart in the source
[9] = molecular target: T2, Corticotropin-releasing factor receptor 2/Corticotropin-releasing factor-binding protein (Homo sapiens, UniProt P24387+Q13324); assay: Dose Response confirmation of uHTS hits for small molecule antagonists of the CRF-binding protein and CRF-R2 receptor complex.; type: functional; conditions: read-out: IC50_Mean
T2 sequence (Q13324 whole entry): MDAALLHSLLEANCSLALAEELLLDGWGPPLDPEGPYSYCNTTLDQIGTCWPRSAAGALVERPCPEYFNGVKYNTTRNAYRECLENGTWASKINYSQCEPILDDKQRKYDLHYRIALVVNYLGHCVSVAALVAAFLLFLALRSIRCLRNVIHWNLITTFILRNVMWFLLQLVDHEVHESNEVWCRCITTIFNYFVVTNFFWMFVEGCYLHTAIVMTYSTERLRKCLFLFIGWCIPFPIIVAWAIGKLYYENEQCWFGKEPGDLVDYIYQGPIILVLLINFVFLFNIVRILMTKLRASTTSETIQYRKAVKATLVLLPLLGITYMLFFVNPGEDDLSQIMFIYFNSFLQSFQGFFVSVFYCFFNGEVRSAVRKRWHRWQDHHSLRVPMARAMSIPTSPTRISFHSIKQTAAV
T2 sequence (P24387 whole entry): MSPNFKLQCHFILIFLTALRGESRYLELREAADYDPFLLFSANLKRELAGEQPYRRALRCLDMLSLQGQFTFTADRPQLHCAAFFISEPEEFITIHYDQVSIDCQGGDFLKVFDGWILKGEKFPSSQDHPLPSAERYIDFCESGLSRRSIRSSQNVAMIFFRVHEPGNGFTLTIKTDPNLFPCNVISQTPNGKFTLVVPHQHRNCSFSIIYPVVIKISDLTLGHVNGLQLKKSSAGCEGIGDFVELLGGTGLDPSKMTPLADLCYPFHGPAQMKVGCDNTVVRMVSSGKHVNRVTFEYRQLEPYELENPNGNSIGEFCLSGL

[10] = molecular target: T3, Cytochrome P450 1A2 (Homo sapiens, UniProt P05177);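 note: PubChem cytochrome P450 panel assay, CYP1A2 panel member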
T3 sequence (P05177 whole entry): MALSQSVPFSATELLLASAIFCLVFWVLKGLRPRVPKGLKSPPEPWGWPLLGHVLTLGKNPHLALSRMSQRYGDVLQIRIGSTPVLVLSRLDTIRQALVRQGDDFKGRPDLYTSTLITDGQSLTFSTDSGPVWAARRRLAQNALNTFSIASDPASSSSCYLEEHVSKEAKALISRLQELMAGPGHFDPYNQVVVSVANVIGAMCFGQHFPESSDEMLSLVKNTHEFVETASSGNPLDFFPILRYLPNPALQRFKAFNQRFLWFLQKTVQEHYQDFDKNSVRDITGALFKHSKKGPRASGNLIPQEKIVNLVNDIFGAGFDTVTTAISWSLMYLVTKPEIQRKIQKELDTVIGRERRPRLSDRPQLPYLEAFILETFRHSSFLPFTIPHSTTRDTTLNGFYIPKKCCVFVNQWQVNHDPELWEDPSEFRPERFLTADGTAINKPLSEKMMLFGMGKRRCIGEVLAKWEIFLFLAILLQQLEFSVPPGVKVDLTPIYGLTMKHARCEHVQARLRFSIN

[11] = molecular target: T2, Corticotropin-releasing factor receptor 2/Corticotropin-releasing factor-binding protein; assay: activators of CRF receptor 2 with binding protein – uHTS hits, confirmation (AID 602473); type: functional; conditions: read-out: EC50_Mean
[12] = molecular target: Cytochrome P450 3A4 (Homo sapiens, UniProt P08684);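 note: CYP3A4 tested as one member of a cytochrome P450 panel screen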
[13] = molecular target: Cytochrome P450 2D6 (Homo sapiens, UniProt P10635);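 note: CYP2D6 member of a cytochrome P450 panel assay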
Cytochrome P450 2D6, sequence (P10635 whole entry): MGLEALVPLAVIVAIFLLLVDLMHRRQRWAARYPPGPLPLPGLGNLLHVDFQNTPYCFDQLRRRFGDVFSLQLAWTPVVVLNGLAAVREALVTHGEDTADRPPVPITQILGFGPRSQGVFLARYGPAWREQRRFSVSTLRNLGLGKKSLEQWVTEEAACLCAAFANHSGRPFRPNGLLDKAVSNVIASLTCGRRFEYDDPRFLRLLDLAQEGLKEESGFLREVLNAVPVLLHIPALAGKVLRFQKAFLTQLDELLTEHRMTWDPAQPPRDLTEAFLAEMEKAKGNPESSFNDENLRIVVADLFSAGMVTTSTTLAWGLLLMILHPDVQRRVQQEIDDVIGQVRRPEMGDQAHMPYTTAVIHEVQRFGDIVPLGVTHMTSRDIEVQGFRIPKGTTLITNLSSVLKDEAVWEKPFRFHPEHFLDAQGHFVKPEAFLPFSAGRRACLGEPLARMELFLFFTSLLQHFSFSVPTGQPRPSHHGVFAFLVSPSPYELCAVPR

[14] = blockers of CRF-binding protein–CRF-R2 complex – cell-based, uHTS hits, 384-well, dose response (AID 651639); type: functional, Homo sapiens; conditions: read-out: IC50_Mean
[15] = molecular target: Dual specificity tyrosine-phosphorylation-regulated kinase 1A (Rattus norvegicus, UniProt Q63470); type: biochemical, Homo sapiens
[16] = molecular target: T4, Polyadenylate-binding protein 1 (Homo sapiens, UniProt P11940); assay: MLLE binding blockers, Cy5 peptide tracer – biochemical, fluorescence polarization, Cy5-PAM2 peptide, secondary, miRNA deadenylation inhibitor project, dose response (AID 602260); type: functional; conditions: read-out: IC50_Mean
T4 sequence (P11940 whole entry, the tested form may be a part): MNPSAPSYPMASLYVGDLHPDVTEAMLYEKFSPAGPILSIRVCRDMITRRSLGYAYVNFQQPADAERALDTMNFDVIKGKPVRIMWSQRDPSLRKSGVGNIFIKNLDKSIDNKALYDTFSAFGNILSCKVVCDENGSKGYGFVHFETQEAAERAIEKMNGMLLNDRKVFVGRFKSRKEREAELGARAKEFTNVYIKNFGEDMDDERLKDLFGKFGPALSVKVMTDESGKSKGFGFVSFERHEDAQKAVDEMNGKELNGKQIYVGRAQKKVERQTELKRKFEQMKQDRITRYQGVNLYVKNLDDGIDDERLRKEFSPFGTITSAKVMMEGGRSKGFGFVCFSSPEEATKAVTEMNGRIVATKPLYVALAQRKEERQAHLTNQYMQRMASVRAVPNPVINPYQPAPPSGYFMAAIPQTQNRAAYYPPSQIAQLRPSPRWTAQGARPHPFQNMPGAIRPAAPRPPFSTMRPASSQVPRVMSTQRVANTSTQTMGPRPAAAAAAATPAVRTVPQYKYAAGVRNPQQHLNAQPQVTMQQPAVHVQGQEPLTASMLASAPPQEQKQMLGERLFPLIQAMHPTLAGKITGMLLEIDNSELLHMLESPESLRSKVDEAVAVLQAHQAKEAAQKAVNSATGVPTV

[17] = molecular target: T4, Polyadenylate-binding protein 1; assay: MLLE domain peptide-binding blockers, IC50 – biochemical, fluorescence polarization, FITC-PAM2 peptide, dose response (AID 602259); type: functional; conditions: read-out: IC50_Mean
[18] = molecular target: Cytochrome P450 2C9 (Homo sapiens, UniProt P11712)
Cytochrome P450 2C9, sequence (P11712 whole entry): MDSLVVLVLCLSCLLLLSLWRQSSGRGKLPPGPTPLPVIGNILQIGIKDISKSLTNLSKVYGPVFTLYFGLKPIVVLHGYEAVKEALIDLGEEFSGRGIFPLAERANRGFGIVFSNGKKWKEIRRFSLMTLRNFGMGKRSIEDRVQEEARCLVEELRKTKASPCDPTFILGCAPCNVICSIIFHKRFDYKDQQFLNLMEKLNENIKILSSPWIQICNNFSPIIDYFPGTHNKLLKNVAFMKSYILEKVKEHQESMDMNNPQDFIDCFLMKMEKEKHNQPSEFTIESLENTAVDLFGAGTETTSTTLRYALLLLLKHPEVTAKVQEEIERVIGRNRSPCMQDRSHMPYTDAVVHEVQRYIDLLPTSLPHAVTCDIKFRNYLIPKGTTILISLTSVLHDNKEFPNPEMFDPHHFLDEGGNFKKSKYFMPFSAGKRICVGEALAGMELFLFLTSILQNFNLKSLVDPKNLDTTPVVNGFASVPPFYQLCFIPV

[19] = molecular target: Luciferin 4-monooxygenase (Photinus pyralis, UniProt P08659); assay: inhibition of purified Photinus pyralis luciferase – biochemical, luminescence, dose response (AID 1891)
Luciferin 4-monooxygenase, sequence (P08659 whole entry): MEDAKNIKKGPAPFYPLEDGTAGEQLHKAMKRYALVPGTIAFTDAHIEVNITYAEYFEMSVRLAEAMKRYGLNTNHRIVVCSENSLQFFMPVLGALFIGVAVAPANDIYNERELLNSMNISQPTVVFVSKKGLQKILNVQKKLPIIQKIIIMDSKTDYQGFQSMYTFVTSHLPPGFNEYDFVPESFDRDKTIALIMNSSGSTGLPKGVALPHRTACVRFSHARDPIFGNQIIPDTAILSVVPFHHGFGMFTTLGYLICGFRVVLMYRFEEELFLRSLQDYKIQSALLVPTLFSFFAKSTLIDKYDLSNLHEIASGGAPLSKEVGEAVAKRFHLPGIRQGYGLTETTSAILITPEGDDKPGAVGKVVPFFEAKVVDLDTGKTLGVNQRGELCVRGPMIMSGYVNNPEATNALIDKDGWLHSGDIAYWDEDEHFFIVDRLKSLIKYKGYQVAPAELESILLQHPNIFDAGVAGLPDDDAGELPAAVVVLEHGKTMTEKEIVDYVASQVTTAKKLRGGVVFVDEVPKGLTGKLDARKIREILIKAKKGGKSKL

[20] = Luminescence Cell-Based Dose Confirmation HTS to Identify Inhibitors of Platelet Dense Granule Release. [Related pubchem assays: 1663 (Primary HTS), 1678 (Summary of Project)]; type: functional
[21] = molecular target: T5, Probable nicotinate-nucleotide adenylyltransferase (Staphylococcus aureus (strain N315), UniProt P65502); type: functional, Staphylococcus aureus subsp. aureus N315;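 for IC50 Mean: confirmatory dose-response retesting of NadD inhibitor hits first found in an ultra-high-throughput screen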
[22] = molecular target: T5, Probable nicotinate-nucleotide adenylyltransferase; type: functional, Staphylococcus aureus subsp. aureus N315; conditions: read-out: IC50_Mean
[23] = molecular target: T6, Zinc finger protein mex-5 (Caenorhabditis elegans, UniProt Q9XUB2); assay: potency of MEX-5 RNA-binding blockers – biochemical, C. elegans, fluorescence polarization, dose response (AID 1960)
T6 sequence (Q9XUB2 whole entry): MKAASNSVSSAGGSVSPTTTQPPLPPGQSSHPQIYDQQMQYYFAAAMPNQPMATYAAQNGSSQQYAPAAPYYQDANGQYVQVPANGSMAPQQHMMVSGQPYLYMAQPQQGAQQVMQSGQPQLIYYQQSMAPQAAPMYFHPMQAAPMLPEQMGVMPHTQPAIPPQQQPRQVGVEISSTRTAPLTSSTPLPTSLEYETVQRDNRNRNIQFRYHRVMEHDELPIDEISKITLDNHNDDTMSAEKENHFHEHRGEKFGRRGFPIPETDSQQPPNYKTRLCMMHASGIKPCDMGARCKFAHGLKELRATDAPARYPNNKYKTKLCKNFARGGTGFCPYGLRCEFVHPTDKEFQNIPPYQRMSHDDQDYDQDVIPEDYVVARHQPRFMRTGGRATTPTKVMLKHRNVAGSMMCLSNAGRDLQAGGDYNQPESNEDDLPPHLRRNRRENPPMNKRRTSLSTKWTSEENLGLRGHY

[24] = molecular target: 26S proteasome non-ATPase regulatory subunit 14 (Homo sapiens, UniProt O00487); assay: inhibition of proteasome subunit RPN11 – biochemical, fluorescence polarization, uHTS hits, confirmation (AID 602368); type: functional
26S proteasome non-ATPase regulatory subunit 14, sequence (O00487 whole entry): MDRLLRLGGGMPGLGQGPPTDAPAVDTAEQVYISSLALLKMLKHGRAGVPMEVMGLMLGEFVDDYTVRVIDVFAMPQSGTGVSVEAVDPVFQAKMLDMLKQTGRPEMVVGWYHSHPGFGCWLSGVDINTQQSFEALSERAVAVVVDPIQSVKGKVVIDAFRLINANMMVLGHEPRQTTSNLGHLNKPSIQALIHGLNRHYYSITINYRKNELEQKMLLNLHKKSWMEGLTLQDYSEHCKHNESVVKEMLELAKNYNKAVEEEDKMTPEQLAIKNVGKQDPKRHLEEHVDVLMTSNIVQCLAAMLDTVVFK

[25] = molecular target: 72 kDa type IV collagenase (Homo sapiens, UniProt P08253); assay: Dose Response validation of uHTS RPN11 inhibitor hits using a MMP-2 Fluorescence assay.; type: functional
72 kDa type IV collagenase, sequence (P08253 whole entry): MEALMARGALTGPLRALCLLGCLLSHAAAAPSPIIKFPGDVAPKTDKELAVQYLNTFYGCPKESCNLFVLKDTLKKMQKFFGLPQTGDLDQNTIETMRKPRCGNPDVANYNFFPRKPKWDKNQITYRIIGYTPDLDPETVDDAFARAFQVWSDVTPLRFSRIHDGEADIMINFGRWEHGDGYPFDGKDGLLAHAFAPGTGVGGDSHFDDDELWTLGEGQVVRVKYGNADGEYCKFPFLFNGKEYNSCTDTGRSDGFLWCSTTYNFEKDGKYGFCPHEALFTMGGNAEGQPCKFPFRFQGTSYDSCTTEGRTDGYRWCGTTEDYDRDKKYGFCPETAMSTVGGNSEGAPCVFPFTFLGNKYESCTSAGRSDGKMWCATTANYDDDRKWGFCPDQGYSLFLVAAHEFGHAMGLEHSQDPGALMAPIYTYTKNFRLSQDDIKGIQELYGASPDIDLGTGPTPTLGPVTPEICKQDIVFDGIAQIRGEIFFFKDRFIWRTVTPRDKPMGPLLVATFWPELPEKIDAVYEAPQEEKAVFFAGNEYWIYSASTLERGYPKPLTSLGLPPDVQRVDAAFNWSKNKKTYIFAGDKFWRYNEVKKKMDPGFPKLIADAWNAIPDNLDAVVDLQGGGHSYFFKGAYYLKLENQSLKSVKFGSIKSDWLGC

[26] = molecular target: Prothrombin (Bos taurus, UniProt P00735); assay: thrombin protease inhibitors – biochemical, fluorescence polarization, uHTS hits, dose response (AID 602369); type: functional
[27] = molecular target: T7, RNA-binding protein pos-1 (Caenorhabditis elegans, UniProt G5EF15); assay: disruptors of C. elegans POS-1 RNA interaction – biochemical, fluorescence polarization, dose response (AID 1964);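 note: purified POS-1 fused to maltose binding protein made in E. coli; potency of compounds blocking POS-1 binding to fluorescent RNA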
T7 sequence (G5EF15 whole entry): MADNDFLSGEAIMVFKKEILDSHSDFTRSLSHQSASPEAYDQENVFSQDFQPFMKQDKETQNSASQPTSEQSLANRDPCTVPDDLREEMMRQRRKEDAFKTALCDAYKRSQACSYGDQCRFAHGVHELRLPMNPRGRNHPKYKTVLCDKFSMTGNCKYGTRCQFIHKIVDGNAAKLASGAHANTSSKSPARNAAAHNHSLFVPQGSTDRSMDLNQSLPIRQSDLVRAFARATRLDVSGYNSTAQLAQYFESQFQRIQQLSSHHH

[28] = molecular target: Melanocortin receptor 4 (Homo sapiens, UniProt P32245); type: functional, cell-based;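 note: Cell-based assay with luminescence read-out, confirmatory dose-response testing for agonist activity of biased ligands at MC4R; human U2OS cells with tagged receptor and beta-arrestin; potency of agonists that increase receptor coupling to beta-arrestin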
Melanocortin receptor 4, sequence (P32245 whole entry): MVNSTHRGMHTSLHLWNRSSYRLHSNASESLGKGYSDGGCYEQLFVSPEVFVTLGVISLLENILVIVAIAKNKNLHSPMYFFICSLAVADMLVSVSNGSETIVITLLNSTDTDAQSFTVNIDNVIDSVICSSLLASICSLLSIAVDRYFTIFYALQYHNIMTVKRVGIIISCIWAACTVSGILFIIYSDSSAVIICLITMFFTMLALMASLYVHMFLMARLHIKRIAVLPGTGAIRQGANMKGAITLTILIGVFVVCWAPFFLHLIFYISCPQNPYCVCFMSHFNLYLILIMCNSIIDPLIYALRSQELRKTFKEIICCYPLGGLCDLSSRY

Compound: CC(/C=C1\SC(=S)N(c2ccc(C(=O)O)cc2)C1=O)=C\c1ccccc1
EC50 [1]: 8.26 µM (active) | IC50 [2]: > 20 µM (inactive) | IC50 [3]: 5.93 µM (active) | IC50 [4]: 5.25 µM (active) | IC50 [5]: 33.7 µM (active) | IC50 [6]: 1.88 µM (active) | IC50 [7]: 3.09 µM (active) | IC50 [8]: 4.09 µM (active)

Compound: O=C1CC(c2cccc(F)c2)SC(N(c2ccccc2)c2ccccc2)=N1 (configuration not stated)
IC50 [9]: 9.86 µM (active) | AC50 [10]: 8.91 µM (inconclusive) | EC50 [11]: > 53 µM (inactive) | AC50 [12]: 17.8 µM (inconclusive) | AC50 [13]: 25.1 µM (inconclusive) | IC50 [14]: 16 µM (active)

Compound: COC(=O)C1=C(C(=O)OC)C(c2cc(Br)ccc2O)c2sc(O)nc2S1 (configuration not stated)
IC50 [5]: 81.6 µM (active) | AC50 [15]: 24.6 µM (active) | IC50 [16]: > 66 µM (inactive) | IC50 [17]: > 66 µM (inactive)

Compound: CCCCOc1ccccc1C1C(C(=O)OC)=CN(CC)C=C1C(=O)OC
IC50 [9]: 3.74 µM (active) | EC50 [11]: > 53 µM (inactive) | EC50 [19]: > 112 µM (not active) | IC50 [14]: 16 µM (active) | EC50 [20]: > 112 µM (not active)

Compound: COc1ccccc1N1C(=O)S/C(=C\c2ccc(C)s2)C1=O
EC50 [23]: 10.1 µM (inconclusive) | IC50 [24]: 23.5 µM (active) | IC50 [25]: > 100 µM (inactive) | IC50 [26]: 36.3 µM (active) | EC50 [27]: > 300 µM (not active)

Compound: CCOc1ccc(NC(=O)CSc2nc(-c3cccs3)cc(C(F)(F)F)n2)c([N+](=O)[O-])c1
EC50 [28]: > 89.2 µM (inactive)

Compound: Cc1ccc(OC(=O)N(C)C[C@@H]2OCc3cnnn3CCCC(=O)N([C@@H](C)CO)C[C@@H]2C)cc1
IC50 [9]: < 0.368 µM (active) | EC50 [11]: > 53 µM (inactive) | IC50 [14]: > 20 µM (inactive)

The remaining lines, values ahead:

IC50 [9]: 8.51 µM (active) | EC50 [11]: > 53 µM (inactive) | AC50 [18]: 17.8 µM (inconclusive) | IC50 [14]: > 20 µM (inactive)
Compound: COc1ccc(C(C(=O)NC2CCCCC2)N(C(=O)c2sc(C)nc2C)c2ccc(OC)cc2)cc1 (configuration not stated)

IC50 [21]: 14.3 µM (active) | IC50 [22]: 31.6 µM (active)
Compound: COc1ccc(Br)cc1CNC(=O)CN1C(=O)C(c2ccccc2)Oc2cccnc21 (configuration not stated)

IC50 [24]: 19.3 µM (active) | IC50 [25]: > 100 µM (inactive) | IC50 [26]: 19.5 µM (active)
Compound: O=C(CCN1C(=O)NC2(CCCC2)C1=O)Nc1ccc(-c2nc3ccccc3s2)cc1

IC50 [4]: 29.9 µM (inactive) | IC50 [6]: 16.8 µM (active)
Compound: Cc1ccccc1S(=O)(=O)Nc1nc2ccccc2nc1N1CCc2ccccc2C1

IC50 [21]: 7.43 µM (active) | IC50 [22]: 23.6 µM (active)
Compound: O=C(CC1N=C2c3ccccc3N=C(SCc3ccc(Cl)cc3)N2C1=O)NCc1ccco1 (configuration not stated)

EC50 [28]: > 89.2 µM (inactive)
Compound: Cc1cc(C)c(CN2CCN(CCCn3cnc(C(=O)Nc4ccc(C)c(C)c4)n3)CC2)c(C)c1

EC50 [28]: > 89.2 µM (inactive)
Compound: O=C(NC(c1ccc(Cl)cc1)c1cccnc1)C1CCN(CCOc2ccc(Cl)cc2Cl)CC1 (configuration not stated)
